Experimental data reported in patent US20100063085A1, “METHOD OF TREATING LEARNING IMPAIRMENT IN DOWN'S SYNDROME SUBJECTS” (University Court of The University of Dundee, priority 2008, published 2010).
Read-outs that look alike come from different tables or passages of the source.

Legend:
Assay type in all cases: biochemical
JNK3 = JNK3 (Homo sapiens, UniProt P53779); assay: JNK3 33P kinase assay; details: read-out: JNK3 activity as percentage of control without inhibitor
Method: (§1) All assays (25.5 μl) were carried out at room temperature (21° C.) and were linear with respect to time and enzyme concentrations under the conditions used. Assays were performed for 30 minutes except assays for LCK and PKB which were performed for 15 minutes using Multidrop Micro reagent dispensers (Thermo Electron Corporation, Waltham, Mass. 02454, USA) in a 96-well format. The concentration of […] [γ-^33P] ATP (800 cpm/pmol) in the assays was one of three concentrations (5, 20 or 50 μM) in order to be at or below Km for ATP for the enzyme. Assays were initiated with MgATP and stopped by addition of 5 μl of 0.5M orthophosphoric acid. Assays were then harvested onto P81 filterplates using a unifilter harvester (PerkinElmer, Boston, Mass. 02118, USA), with a wash buffer of 50 mM orthophosphoric acid. Filterplates were then air dried overnight. 10 μl of Microscint O was added per well prior to counting for radioactivity.
(§2) The following kinases were assayed against the substrates indicated. Aurora B was assayed against the substrate peptide […] (300 μM), ERK8 and MST-2 were both assayed against MBP (0.33 mg/ml). IKKβ was assayed against the substrate peptide […] (300 μM), JNK3 was assayed against 3 μM ATF2[19-96]. MAPKAP-K3 and PKD1 were both assayed against […] (30 μM), MARK3 was assayed against CHKtide ([…]) substrate peptide (300 μM). MNK1 and MNK2 were both assayed against eIF4E protein (0.5 mg/ml). NEK7 was assayed against […] (300 μM), PIM2 was assayed against […] (300 μM), ΔPH PKBβ-S474D was assayed against Crosstide (30 μM), PLK1 was assayed against […] (300 μM). PRK2 was assayed against Long S6 peptide, […] (30 μM), RSK2 was assayed against […] (30 μM), SRC was assayed against cdc2 peptide, […], (300 μM) and SRPK1 was assayed against peptide […] (300 μM). All enzymes were diluted in 50 mM Tris/HCl pH 7.5, 0.1 mM EGTA, 1 mg/ml BSA, 0.1% β-mercaptoethanol buffer and assayed in an incubation containing 50 mM Tris/HCl pH7.5, 0.1 mM EGTA, 0.1% β-mercaptoethanol, CAMK-1 (5-20 mU) diluted in 50 mM Tris/HCl pH 7.5, 0.1 mM EGTA, 1 mg/ml BSA, 0.1% β-mercaptoethanol is assayed against substrate peptide […] in an incubation containing 50 mM Tris/HCl pH 7.5, 0.1 mM EGTA, 0.5 mM CaCl2, 0.3 μM calmodulin, 0.1% β-mereaptoethanol, 300 μM substrate peptide, 10 mM magnesium acetate and 0.05 mM [^33P-γ-ATP] (500-1000 cpm/pmole). EF2K (5-20 mU) diluted in 50 mM Hepes pH 6.6, 0.1% β-mercaptoethanol, 1 mg/ml BSA is assayed against a substrate peptide […] in an incubation containing 50 mM Hepes pH 6.6, 0.2 mM CaCl2, 0.3 μM Calmodulin, 0.05% b-mercaptoethanol, 300 μM substrate peptide, 10 mM magnesium acetate and 0.05 mM [^33P-γ-ATP] (500-1000 cpm/pmole).

DYRK1a = target: T1, DYRK1a (Homo sapiens, UniProt Q13627); assay: biochemical; details: for remaining activity at 1 µM / remaining activity at 10 µM: read-out: DYRK1a activity as percentage of control without inhibitor
T1 construct: made in house
Method: DYRK1A (5-20 mU of diluted in 50 mM Tris pH 7.5, 0.1 mM EGTA) was assayed against Woodtide ([…]) in a final volume of 25.5 μl containing 50 mM Tris pH 7.5, 0.1 mM EGTA, 350 uM substrate peptide, 10 mM magnesium acetate and 0.5 μl inhibitor and incubated at room temperature for 5 mins, followed by the addition of 0.05 mM [33P-gamma-ATP] (50-1000 cpm/pmole) and incubated for 30 mins at room temperature. Assays were stopped by addition of 5 μl of 0.5 M (3%) orthophosphoric acid then harvested onto P81 Unifilter plates with a wash buffer of 50 mM orthophosphoric acid. Filterplates were then air dried overnight. 10 μl of Microscint O was added per well prior to counting for radioactivity.

PIM2 = PIM2 (Homo sapiens, UniProt Q9P1W9); assay: PIM2 33P kinase assay; details: read-out: PIM2 activity as percentage of control without inhibitor
Sequence of PIM2 (Q9P1W9 whole entry, species assumed): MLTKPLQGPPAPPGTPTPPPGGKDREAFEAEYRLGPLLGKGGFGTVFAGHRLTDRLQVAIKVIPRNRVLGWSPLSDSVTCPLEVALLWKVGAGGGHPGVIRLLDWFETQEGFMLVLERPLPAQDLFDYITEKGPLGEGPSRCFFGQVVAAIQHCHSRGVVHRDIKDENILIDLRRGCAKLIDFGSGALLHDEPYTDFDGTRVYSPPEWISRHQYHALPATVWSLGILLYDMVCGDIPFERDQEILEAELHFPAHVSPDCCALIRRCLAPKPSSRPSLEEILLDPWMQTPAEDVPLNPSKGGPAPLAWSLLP
Method: as §1, §2

MKK1 = MKK1 (Homo sapiens, UniProt Q02750); assay: MKK1 33P kinase assay; details: read-out: MKK1 activity as percentage of control without inhibitor
Sequence of MKK1 (Q02750 whole entry, species assumed): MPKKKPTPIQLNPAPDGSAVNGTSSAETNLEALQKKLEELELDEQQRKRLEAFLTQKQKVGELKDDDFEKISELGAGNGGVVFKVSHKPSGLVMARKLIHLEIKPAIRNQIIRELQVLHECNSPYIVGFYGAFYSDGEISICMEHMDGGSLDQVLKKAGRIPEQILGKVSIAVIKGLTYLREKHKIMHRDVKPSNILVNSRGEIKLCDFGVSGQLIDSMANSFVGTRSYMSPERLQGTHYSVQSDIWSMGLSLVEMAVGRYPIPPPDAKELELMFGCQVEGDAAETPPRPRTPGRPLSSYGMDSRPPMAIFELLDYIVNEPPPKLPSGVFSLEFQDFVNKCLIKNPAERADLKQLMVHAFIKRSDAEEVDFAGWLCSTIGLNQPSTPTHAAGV
Method: as §1
(§3) MKK1, JNK/SAPK1c, SAPK2a/p38, SAPK2b/p38β2, SAPK3/p38γ, SAPK4/p38δ, MAPK2/ERK2, MAPKAP-K1β, MAPKAP-K2, MSK1, PRAK, PKA, PKCα, PDK1, SGK, p70S6K, GSK3β, ROCK-II, PRK2, AMPK, CHK1, CHK2, CK2, PHK, LCK, were assayed according to Davies et al., (Davies, S. P., Reddy, H., Caivano, M. and Cohen, P. Biochem. J. 351, 95-105, 2000.
(§4) CSK and CDK2/cyclinA, were assayed according to Bain et al. (Bain J, McLauchlan H, Elliott M, Cohen P. Biochem J. 371, 199-204, 2003., except that ATP concentrations were either 5, 20 or 50 micromolar so that they were at or below the Km for ATP. The ATP concentrations used were as follows, 5 μM for assays of MKK1, SAPK3, SAPK4, GSK3β, PRK2 CK2 20 μm for assays of JNK, SAPK2β, MAPKAP-K2, MSK1, PRAK, PKA, […], PDK1, SGK, p70S6K, ROCK-II, CHK1, CHK2, CSK, CDK2, and 50 μM for assays of SAPK2a, MAPK2/ERK2, AMPK, LCK, PHK and MAPKAP-K1β.

PKCa = PKCa (Homo sapiens, UniProt P17252); assay: PKCa 33P kinase assay; details: read-out: PKCa activity as percentage of control without inhibitor; for remaining activity at 1 µM: inhibitor 1 μM; for remaining activity at 10 µM: inhibitor 10 μM
Method: as §1, §3, §4

SAPK2a/p38 = SAPK2a/p38 (Homo sapiens, UniProt Q16539); assay: SAPK2a/p38 33P kinase assay; details: read-out: SAPK2a/p38 activity as percentage of control without inhibitor
Sequence of SAPK2a/p38 (Q16539 whole entry): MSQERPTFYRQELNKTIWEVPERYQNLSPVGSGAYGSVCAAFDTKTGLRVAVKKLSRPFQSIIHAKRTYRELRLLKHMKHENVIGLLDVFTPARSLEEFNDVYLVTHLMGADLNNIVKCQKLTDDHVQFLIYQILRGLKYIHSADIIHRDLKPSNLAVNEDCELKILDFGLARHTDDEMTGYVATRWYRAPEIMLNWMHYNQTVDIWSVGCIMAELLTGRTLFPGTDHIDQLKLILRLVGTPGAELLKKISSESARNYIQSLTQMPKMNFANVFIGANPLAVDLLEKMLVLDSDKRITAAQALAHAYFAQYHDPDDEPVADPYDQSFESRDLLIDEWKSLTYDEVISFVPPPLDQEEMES
Method: as §1, §3, §4

Sequence of JNK3 (P53779 whole entry, species assumed): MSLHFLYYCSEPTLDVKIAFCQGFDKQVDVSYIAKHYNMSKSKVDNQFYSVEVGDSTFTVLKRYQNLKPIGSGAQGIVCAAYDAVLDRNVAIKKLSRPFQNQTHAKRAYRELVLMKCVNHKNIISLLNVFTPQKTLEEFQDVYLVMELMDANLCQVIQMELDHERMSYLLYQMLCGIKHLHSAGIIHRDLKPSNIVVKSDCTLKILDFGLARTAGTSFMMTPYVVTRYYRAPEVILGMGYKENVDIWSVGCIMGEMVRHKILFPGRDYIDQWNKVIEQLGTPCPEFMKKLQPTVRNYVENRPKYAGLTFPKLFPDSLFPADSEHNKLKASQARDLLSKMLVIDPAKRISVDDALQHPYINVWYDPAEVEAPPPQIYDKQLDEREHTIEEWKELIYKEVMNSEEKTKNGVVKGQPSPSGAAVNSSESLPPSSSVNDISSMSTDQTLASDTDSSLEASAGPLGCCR

Row | Compound | remaining activity at 1 µM (JNK3) [%] | remaining activity at 10 µM (JNK3) [%] | remaining activity at 1 µM (PKCa) [%] | remaining activity at 10 µM (PKCa) [%] | remaining activity at 1 µM (SAPK2a/p38) [%] | remaining activity at 10 µM (SAPK2a/p38) [%] | remaining activity at 1 µM (DYRK1a; inhibitor 1 μM) [%] | remaining activity at 10 µM (DYRK1a; inhibitor 10 μM) [%] | remaining activity at 1 µM (PIM2; inhibitor 1 μM) [%] | remaining activity at 10 µM (PIM2; inhibitor 10 μM) [%] | remaining activity at 1 µM (MKK1; inhibitor 1 μM) [%] | remaining activity at 10 µM (MKK1; inhibitor 10 μM) [%] | other results
1 | COc1ccc2c(c1)[nH]c1c(C)nccc12 [Harmine] | 89 | 83 | 96 | 101 | 95 | 81 | – | – | – | – | – | – | inhibition of DYRK1a, result in words (DYRK1a): very potent and specific inhibitor of DYRK1a; remaining activity at 1 µM (DYRK1a): 4%; remaining activity at 10 µM (DYRK1a): 1%; remaining activity at 1 µM (PIM2): 77%; remaining activity at 10 µM (PIM2): 41%; remaining activity at 1 µM (MKK1): 76%; remaining activity at 10 µM (MKK1): 73%
2 | COc1ccc2c3c([nH]c2c1)C(C)=NCC3 [Harmaline] | 87 | 81 | 88 | 81 | 89 | 86 | 78 | 8 | 86 | 101 | 47 | 39 | –
3 | CC1=NCCc2c1[nH]c1cc(O)ccc21 [Harmalol] | – | – | 109 | 78 | – | – | 25 | 3 | 90 | 57 | 92 | 66 | remaining activity at 1 µM (JNK3; inhibitor 1 μM): 92%; remaining activity at 10 µM (JNK3; inhibitor 10 μM): 94%; remaining activity at 1 µM (SAPK2a/p38; inhibitor 1 μM): 95%; remaining activity at 10 µM (SAPK2a/p38; inhibitor 10 μM): 74%
